Data taken from a melting point compilation (Tetko et al.; mined from patent text by program, amines drawn as free bases though some values may be those of a salt).

In the case of `COC(=O)C1=C(C)NC(C)=C(C(=O)OC)C1c1cc([N+](=O)[O-])ccc1OCCCCNCC(O)COc1ccc(OC)cc1` (stereo unspecified), the melting point is reported as 154 to 155 °C. For `O=S1(=O)NCN(C2CCCCC2)c2cc(Cl)ccc21`, the melting point was 178 to 180 °C. In the case of `N#Cc1cc(Oc2ccc3c(C(=O)Nc4cccc(C(F)(F)F)c4)cccc3c2)ncn1`, the melting point is reported as 167 °C. `Cc1nnc(-c2ccc3occ(-c4cccc(F)c4F)c3c2)o1` showed a melting point of 112 to 113 °C. `NC1CCN(C(=O)c2ccc(-c3[nH]nc4c3C(=O)c3c(NC(=O)NN5CCOCC5)cccc3-4)s2)C1` (stereo unspecified) showed a melting point of 201 to 202 °C. `N[C@H](C1CCCCC1)C(O)(c1ccccc1)c1ccccc1` showed a melting point of 181 to 182 °C. `Cc1ncccc1NC(=NC#N)NC(NC(=O)CCCCc1ccccc1)C(C)(C)C` (stereo unspecified) showed a melting point of 133 to 134 °C. For `CNC(=O)c1cnc(OCC(O)CNC(C)C)c(Cl)c1` (stereo unspecified), the melting point was 130 to 132 °C. Work on `CS(=O)(=O)Nc1ccc2c(c1)CCN(Cc1ccc3cc(NS(C)(=O)=O)ccc3n1)CC2` yielded a melting point of 207 to 210 °C. `CCn1cc2c(C3CC3CNC(C)=O)cccc2n1` (stereo unspecified) gave a melting point of 155 to 159 °C. Work on `O=c1cc(N2CCCCC2)oc2c1ccc1ccccc12` yielded a melting point of 205 to 207 °C. `COc1cc2cc(C(=O)N3CC(CCl)c4c3cc(NCCNC(=O)OC(C)(C)C)c3ccccc43)[nH]c2c(OC)c1OC` (stereo unspecified) gave a melting point of 110 to 115 °C. `C[C@H]1c2cc(F)ccc2-c2ccc(F)cc2N1S(=O)(=O)c1cccc(O)c1` gave a melting point of 181 to 182 °C. `COc1cccc(C(C(N)=O)(c2c(Cl)cncc2Cl)C2CCCC2)c1` (stereo unspecified) gave a melting point of 106 to 107 °C. For `CC1(C)OC(=O)Nc2ccc(-c3cccc(C#CC#N)c3)cc21`, the melting point was 212 to 213 °C. In the case of `CC(C)(C)c1cc2c(c(C(C)(C)C)c1)OC(=O)C2c1ccc(O)cc1` (stereo unspecified), the melting point is reported as 187 to 190 °C. For `FC(F)(F)Sc1cc(C(F)(F)F)[nH]c1-c1ccc(Cl)cc1`, the melting point was 53 to 55 °C. `O=C(O)[C@@H](Cc1ccccn1)Nc1cc(-c2ccc(OCc3ccccc3)cc2)ncn1` showed a melting point of 142 °C. For `CN(C(=O)c1cnc(N2CCNC2=O)nc1N)c1cccc(C(F)(F)F)c1`, the melting point was 249 to 250 °C. `C=CCC(CC)(C(=O)c1ccc(OCCO)cc1)N(C)C` (stereo unspecified) gave a melting point of 80 to 82 °C. `CSc1nccc(Oc2ccc(NC(=O)c3cc(F)cc(OC4CCCC4)c3)c3ccccc23)n1` gave a melting point of 115 to 116 °C. In the case of `O=c1nc(-c2ccccc2O)oc2ccccc12`, the melting point is reported as 206 to 208 °C. Work on `COCC1COc2cc3ncnc(Nc4cccc(I)c4)c3cc2O1` (stereo unspecified) yielded a melting point of 175 to 177 °C. With `Cn1nc(-c2ccncc2)n(C)c1=S` the melting point was 150 to 152 °C. `Cn1ncc2c(c1=O)S(=O)(=O)CCNC2Cc1ccccc1` (stereo unspecified) gave a melting point of 288 to 290 °C. Work on `CCCc1c(O)cc(O)c(C(=O)CCc2ccc(O)cc2)c1O` yielded a melting point of 216 to 218 °C. In the case of `Cc1nc(-c2ccc(OCC(C)C)c(C=O)c2)sc1C(=O)O`, the melting point is reported as 213 to 217 °C. In the case of `COc1ccc(I)cc1CCCO`, the melting point is reported as 68 to 70 °C. For `CC(=O)OC(c1ccc(Cl)c(Cl)c1)C(Cl)(Cl)Cl` (stereo unspecified), the melting point was 85 to 86 °C. `Cc1ccc(S(=O)(=O)N2CCc3ccccc3C(Oc3ccccc3)C2)cc1` (stereo unspecified) gave a melting point of 155 to 156 °C. `Nc1nc(NCC=Cc2ccccc2)nc(-c2cc(Cl)ccc2Cl)n1` showed a melting point of 198 to 199 °C. For `CC(C)C(NC(=O)Cn1cc(Cc2ccc(F)cc2)cc(NC(=O)OCc2ccccc2)c1=O)C(=O)C(F)(F)F` (stereo unspecified), the melting point was 66 to 72 °C. In the case of `CCCN(CCC)c1ccc(S(=O)(=O)NCCCCC(=O)O)cc1`, the melting point is reported as 95 to 98 °C. Work on `CCOC(=O)C1=C(N)NC(C)=CC1c1ccccc1` (stereo unspecified) yielded a melting point of 150 °C. With `O=c1[nH]ccc2c(OCc3ccccc3)cccc12` the melting point was 165 to 168 °C. `Nc1cnc(-c2cccc(Cl)c2Cl)c(N)n1` gave a melting point of 169 to 170 °C. `CCNc1cc(NS(=O)(=O)c2ccc(N)cc2)nc(N(C)C)n1` showed a melting point of 237 to 238 °C. `COc1cccc2c1CC(N(CCCc1cn(C)c3ccc(F)cc13)CC1CC1)CO2` (stereo unspecified) gave a melting point of 86 °C. With `O=C1CCCc2nc3ccccc3c(NCc3ccc(F)cc3)c21` the melting point was 158 to 159 °C. With `O=[N+]([O-])c1ccc(OCC2CCN(c3ccncc3)CC2)cc1` the melting point was 119 to 120 °C. For `COc1ccc(C(=O)N2c3ccccc3C(n3c4ccccc4c4ccccc43)CC2CCCCCN2CCC(c3cccc(C(F)(F)F)c3)CC2)cc1OC` (stereo unspecified), the melting point was 149 to 150 °C. Work on `CCCCCCCCCCCCOc1ccc(O)c(C(=O)NNC(=O)c2ccccc2O)c1` yielded a melting point of 244 °C. Molecule `CC#CCOc1ccc(S(=O)(=O)NC(C(=O)NO)c2ccc(OCCN3CCCC3)cc2)cc1` (stereo unspecified) has a melting point of 70 °C. For `O=c1[nH]c(=O)n(C2CC(O)C(CO)O2)cc1C=CBr` (stereo unspecified), the melting point was 165 to 166 °C. `COc1cccc2c(CCCCNC3COc4c(F)ccc(C(N)=O)c4C3)coc12` (stereo unspecified) gave a melting point of 138 to 141 °C. With `COC(C)(C)O[C@@H]1C(=O)N(C(=O)OC(C)(C)C)[C@@H]1c1ccccc1` (relative stereo) the melting point was 90 to 92 °C. Work on `O=C1CCc2ncc3cc(Cl)c(Cl)cc3c2N1` yielded a melting point of 350 °C. `CCOC(=O)c1cn(NC=O)c2cc3c(cc2c1=O)OCO3` gave a melting point of 255 to 257 °C. In the case of `CC1(C)CC(=O)c2c(Oc3ccccc3)sc(-c3cc[nH]n3)c2C1`, the melting point is reported as 232 to 234 °C. With `Cc1nc(-c2cccc(C(=O)Nc3ccc(Cl)cc3)c2)sc1C(=O)O` the melting point was 246 to 248 °C. Work on `CC(C)NS(=O)(=O)NC(C)C` yielded a melting point of 98 to 101 °C. `N=C(N)c1ccc2cc(OC(=O)CCCC3CCCCC3)ccc2c1` showed a melting point of 189 to 193 °C. `O=C(O)c1ccc(=O)n(CCNC(=O)c2ccccn2)c1` showed a melting point of 266 to 268 °C. Work on `O=Cc1cn(-c2ccccc2)nc1OCc1ccccc1` yielded a melting point of 153 to 154 °C. Work on `Nc1c(Cl)cccc1SSc1cccc(Cl)c1N` yielded a melting point of 87 to 88 °C. In the case of `Cc1ccc(C(=O)NN(C(=O)c2cc(Cl)sc2Cl)C(C)(C)C)cc1`, the melting point is reported as 163 to 165 °C. For `C=CC(=O)NC(C)(C)c1ccc(OCc2ccccc2)cc1`, the melting point was 116 to 117 °C. With `Cc1ccc(S(=O)(=O)N2CCN(S(=O)(=O)c3ccc(C)cc3)CC(=O)NCC(C3CCCCC3)NC(=O)CN(S(=O)(=O)c3ccc(C)cc3)CC2)cc1` (stereo unspecified) the melting point was 224 °C. With `O=C(O)c1noc(-c2cnccc2C(F)(F)F)n1` the melting point was 157 to 159 °C. With `COc1ccc(C(=O)Nc2nc3ccc(N)cc3c(NCc3cccs3)c2C#N)cc1` the melting point was 200 to 203 °C. Work on `CCc1nc2c(N)nc3ccccc3c2s1` yielded a melting point of 170 to 172 °C. `O=C1NC(=O)C(CCCc2ccc3oc(Cc4ccc5ccccc5c4)nc3c2)O1` (stereo unspecified) gave a melting point of 151 to 152 °C. For `O=c1[nH]c2cc(F)ccc2c(=O)n1-c1ccccc1`, the melting point was 304 to 306 °C. `CCc1c2c(nn1CC)c(N)nc1ccccc12` showed a melting point of 234 to 236 °C. In the case of `N#Cc1c(N)[nH]c2c1COc1ccccc1-2`, the melting point is reported as 216 to 217 °C. Molecule `CC(C)N1CCN(CCN2CCN(c3cn(-c4ccc(F)cc4)c4cc(Cl)ccc34)CC2)C1=O` has a melting point of 176 to 177 °C. For `CSc1ccc(N=Cc2ccc(Cl)cc2)cc1`, the melting point was 203 to 205 °C. `COCCOc1c(S(C)(=O)=O)ccc(C(=O)c2cnn(C)c2O)c1C` showed a melting point of 112 to 114 °C. Molecule `CCCCOc1ccc2cc(C(C)C(=O)O)ccc2c1` (stereo unspecified) has a melting point of 125 to 127 °C. Work on `CC(CN1C(=O)C2(COc3cc4c(cc32)CCO4)c2ccccc21)OCc1ccccc1` (stereo unspecified) yielded a melting point of 45 to 47 °C. `Nc1cc(-n2cc(C(=O)O)c(=O)c3cc(F)c(Cl)nc32)c(F)cc1Cl` showed a melting point greater than 270 °C.
